Assay [1] has as its target T1, CXCR4 on the surface of SupT1 cells (Homo sapiens, UniProt P61073).
T1 construct: constitutively express CXCR4 on the cell surface; host or cells: SupT1 cells
Nature of the assay: Inhibition of binding of anti-CXCR4-PE antibody to CXCR4 on SupT1 cells (flow cytometry). The following applies: for % positive / Mean fluorescence intensity / Median fluorescence intensity: anti-CXCR4-PE. An excerpt: The assay assesses the ability of glycomimetic compounds to inhibit binding of an anti-CXCR4 antibody conjugated to phycoerythrin (“PE”), to CXCR4 on the surface of SupT1 cells. SupT1 cells are a T lymphoblast derived from a lymphoblastic leukemia and constitutively express CXCR4 on the cell surface. The cells are purchased from ATCC (ATCC number CRL-1942). Anti-human CXCR4-phycoerythrin monoclonal antibody (anti-CXCR4-PE) is purchased from R&D Systems (catalog number FAB170P, clone 12G5). The cells are grown in RPMI 1640 medium supplemented with 10% FBS. Approximately 2×10^6 cells are washed three times by centrifuging the cells at 400×g for 10 minutes and the cell pellet is resuspended in PBS plus 0.05% BSA. After the third centrifugation, the cell pellet is resuspended in PBS plus BSA to a concentration of 5×10^5 cells per ml. To block non-specific binding, human […] is added to the cells to a concentration of 1 μg per 10^5 cells. Next, 200 μl (1×10^5 cells) are added to 5 ml polypropylene round-bottom tubes (Falcon 2063 tubes). Compound #1 (Example 1) (lot 31-190) is added to the cells at final concentrations of 0.5, 5, 10, and 50 μM. To achieve a final concentration of 0.5 μM, 2.2 μl of 50 μM Compound #1 plus 19.8 μl of PBS/BSA are added to 200 μl of cells. To achieve a final concentration of 5 μM, 22 μl of 50 μM Compound #1 are added to 200 μl of cells. To achieve a final concentration of 10 μM, 4.4 μl of 500 μM Compound #1 plus 17.6 μl of PBS/BSA are added to 200 μl of cells. To achieve a final concentration of 50 μM, 22 μl of 500 μM Compound #1 are added to 200 μl of cells. Other aliquots of cells are treated with either 1 or 5 μM of the bicyclam CXCR4 antagonist AMD-3100 (Sigma Aldrich, catalog #A5602). To achieve a final concentration of 1 μM AMD-3100, 4.4 μl of 50 μM AMD-3100 plus 17.6 μl of PBS/BSA are added to 200 μl of cells and to achieve a final concentration of 5 μM, 22 μl of 50 μM AMD-3100 are added to 200 μl of cells. In addition, one tube of cells is treated with 1 μg/ml of SDF-1α (R&D Systems catalog #350-NS), the natural ligand of CXCR4. The tubes are placed at 4° C. for 15 minutes. Subsequently, each tube receives 10 μl of anti-CXCR4-PE, except one tube of cells receives 10 μl of mouse IgG 2A isotype control antibody. The tubes are incubated at 4° C. for 45 minutes. The cells are washed twice with PBS plus 0.05% BSA and the final cell pellet is resuspended in 100 μl of PBS/BSA. To fix the samples, 100 μl of 2% formaldehyde (Polysciences, Inc. ultrapure EM grade, catalog number 04018) are added to each tube. Flow cytometry is performed using a Cytomation MoFlo instrument.

Assay [2] has as its system E-selectin/Ig chimera. In words: E-selectin competitive binding assay (sLe^a polyacrylamide conjugate). To be noted: FIGS. 4 and 5. How it is done: The inhibition assay to screen glycomimetic antagonists of E-selectin is a competitive binding assay, which allows the determination of IC50 values. Briefly, E-selectin/Ig chimera is immobilized by incubation at 37° C. in 96 well microtiter plates for 2 hours. To reduce nonspecific binding, bovine serum albumin is added to each well and incubated at room temperature for 2 hours. The plate is washed and serial dilutions of the test compounds are added to the wells in the presence of conjugates of biotinylated, sLe^a polyacrylamide with streptavidin/horseradishperoxidase and incubated for 2 hours at room temperature. To determine the amount of sLe^a bound to immobilized E-selectin after washing, the peroxidase substrate, 3,3′,5,5′ tetramethylbenzidin (TMB) is added. After 3 minutes, the enzyme reaction is stopped by the addition of H3PO4 and the absorbance of light at a wavelength of 450 nm is determined. The concentration of test compound required to inhibit binding by 50% is determined and reported as the IC50 value for each glycomimetic E-selectin antagonist. In addition to reporting the absolute IC50 value as measured above, relative IC50 values are determined by a ratio of the IC50 measured for the test compound to that of an internal control (reference) stated for each assay.

pIC50: −log10 of the molar value.

Usually pIC50 stands for the negative decadic logarithm of the IC50, by convention in mol/L. Read a high pIC50 as a low IC50.

T1 sequence (P61073 whole entry): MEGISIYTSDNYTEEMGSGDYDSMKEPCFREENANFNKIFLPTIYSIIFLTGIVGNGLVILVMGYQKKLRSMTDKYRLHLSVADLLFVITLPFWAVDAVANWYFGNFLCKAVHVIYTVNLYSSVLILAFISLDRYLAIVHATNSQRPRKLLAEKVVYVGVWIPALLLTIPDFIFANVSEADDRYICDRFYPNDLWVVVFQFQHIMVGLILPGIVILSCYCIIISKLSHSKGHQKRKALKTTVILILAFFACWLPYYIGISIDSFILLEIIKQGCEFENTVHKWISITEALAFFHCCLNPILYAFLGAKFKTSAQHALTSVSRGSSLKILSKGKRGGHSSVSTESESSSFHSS

`CC1CC(C(=O)NCCNCc2ccc(CN3CCCNCCNCCCNCC3)cc2)CC(OC2OC(CO)C(O)C(O[C@@H](CC3CCCCC3)C(=O)O)C2OC(=O)c2ccccc2)C1OC1OC(C)C(O)C(O)C1O` (stereo partly shown) [Compound #1]: the “Inhibition of binding of anti-CXCR4-PE antibody to CXCR4 (in words)” value in assay [1] is “inhibits binding of anti-CXCR4-PE to SupT1 cells in a dose-dependent manner”. The “% positive” value in assay [1] (0.5 μM inhibitor) is recorded as 98.69%; in assay [1] (5 μM inhibitor), 81.48%; in assay [1] (10 μM inhibitor) it was 42.06%; in assay [1] (50 μM inhibitor), 12.80%. In addition, the Mean fluorescence intensity in assay [1] (0.5 μM inhibitor) was 68.49; in assay [1] (5 μM inhibitor), 22.25; in assay [1] (10 μM inhibitor) it was 14.08; in assay [1] (50 μM inhibitor), 11.08. Besides, the Median fluorescence intensity in assay [1] (0.5 μM inhibitor) is reported as 54.25; in assay [1] (5 μM inhibitor), 13.34; in assay [1] (10 μM inhibitor) it was 6.04; in assay [1] (50 μM inhibitor), 3.92. The same molecule had a negative logarithm of the IC50 (pIC50) in assay [1] (anti-CXCR4-PE clone 12G5, 4° C.) of 5.08. Further, the “E-selectin antagonist activity (in words)” value in assay [2] is given as “potent E-selectin antagonist”.
As for SDF-1α, the “Inhibition of binding of anti-CXCR4-PE antibody to CXCR4 (in words)” value in assay [1] was “efficiently inhibits binding”. Also, in assay [1] (1 μg/ml inhibitor), the “% positive” value worked out at 12.37%, the Mean fluorescence intensity was found to be 10.25 and the Median fluorescence intensity was found to be 4.07.
Regarding `c1cc(CN2CCCNCCNCCCNCC2)ccc1CN1CCCNCCNCCCNCC1` [AMD-3100, reference compound], in assay [1] (1 μM inhibitor), the “% positive” value worked out at 57.57%, the Mean fluorescence intensity is recorded as 15.60 and the Median fluorescence intensity stood at 7.77. Further, in assay [1] (5 μM inhibitor), the “% positive” value stood at 12.42%, the Mean fluorescence intensity came out at 9.98 and the Median fluorescence intensity worked out at 3.92.

Values taken from US8410066B2, “Heterobifunctional inhibitors of E-selectins and CXCR4 chemokine receptors” (GlycoMimetics, Inc., priority 2009, dated 2013).
